From PMC9182007, “Statistical Methods in the Study of Protein Binding and Its Relationship to Drug Bioavailability in Breast Milk” (Molecules, 2022)
Like-named read-outs stand apart in the source and are kept apart here.

What was measured:
[1] = biological target: T1, human serum albumin (HSA) (Homo sapiens, UniProt P02768); test: in vitro; details: immobilized hsa column, pH 7.4
[2] = system: plasma protein; details: Table S1, plasma protein binding given as fraction; ref DrugBank [7]; cited from earlier work
[3] = Table S1, coded 1/0; ref DrugBank [7]; cited from earlier work
[4] = Milk-to-plasma (M/P) drug concentration ratio obtained in vivo, from literature; parameters: species or system human; details: Table S1, scale of drug penetration into milk 1-4
[5] = biological target: T2, bovine serum albumin (BSA) (Bos taurus, UniProt P02769); test: NP TLC on plates impregnated with bovine serum albumin; assay type: binding; details: Table S3, NP plate impregnated with 2 mg/mL BSA; pH 7.4 mobile phase
T2 construct: purchased Sigma Aldrich
Description: (§1) Chromatographic descriptors were obtained in experiments, thin layer chromatography in normal (NP TLC) and reversed mode (RP TLC). The stationary phase was modified with bovine serum albumin (BSA). TLC was the source of retention factor (Rf) values, denoted in statistical models as NP and RP.
(§2) For TLC chromatography, glass plates 20 × 20 cm from Merck, covered with silica gel with the addition of a fluorescent indicator, were used. Normal phase (NP) plates were used with standard Merck TLC Silica gel 60 F254 plates, while in reverse phase (RP) silanized plates RP-2: Merck TLC Silica gel 60 RP-2 F254 were used.
(§3) The stationary phase of the plates, both NP and RP, was modified with an aqueous solution of bovine serum albumin purchased from Sigma Aldrich (bovine serum albumin, lyophilized powder).
(§4) The impregnation of the plates was carried out with a 2 mg/mL solution applied to the surface using a Desaga SG 1 hand sprayer; the plates were then air dried. […] Normal and reversed phase thin layer chromatography (NP TLC and RP TLC respectively) was performed using silica-gel-coated glass plates. Half of them were covered with 2 mg/mL bovine serum albumin solution and half remained pure.
(§5) The mobility of the compounds was also determined on the plates with no protein as a modifier. […] The acetate buffer (20 mM) was prepared by dissolving 1.54 g of ammonium acetate in 1 L of distilled water. The pH was then adjusted with a concentrated ammonia solution using a pH meter. The plates were developed in standard, vertical chromatographic chambers, each time using 100 mL of the mobile phase, after the chamber was previously saturated with solvent vapors for approximately 1 h.
(§6) The unfolded-protein-impregnated plates and the control plates were scanned with a Desaga CD 60 densitometer. The values of the delay factor (Rf) were collected, i.e., the ratio of the distance traveled by the substance to be analyzed to the distance traveled through the front of the mobile phase. […] The experiment was repeated (for both BSA-coated and control plates) and the Rf values pooled are the mean of both series of experiments.

[6] = RP TLC on non-impregnated control plates; assay type: physicochemical; details: Table S4, non-impregnated RP plate; acetonitrile/acetate buffer pH 7.4/methanol 60:20:20
Protocol: as §2
(§7) Normal and reversed phase thin layer chromatography (NP TLC and RP TLC respectively) was performed using silica-gel-coated glass plates. Half of them were covered with 2 mg/mL bovine serum albumin solution and half remained pure.
as §5, §6

[7] = NP TLC on non-impregnated control plates; assay type: physicochemical; details: Table S3, non-impregnated NP plate; acetonitrile/acetate buffer pH 7.4/methanol 60:20:20
Protocol: as §2, §7, §5, §6

[8] = Table S1; source not stated; cited from earlier work
[9] = biological target: T1, human serum albumin (HSA)
[10] = HPLC on immobilized artificial membrane column (HPLCIAM); assay type: physicochemical; details: for log k IAM: Table S5, IAM column, pH 7.4; for k IAM: Table S5, retention factor, IAM column, phosphate buffer pH 7.4/acetonitrile 80:20
Protocol: High performance liquid chromatography was performed using immobilized human serum albumin column (HPLCHSA) and immobilized artificial membrane (HPLCIAM). HPLC was the source of the log k values (logarithm of retention factor), log kHSA and log kIAM.
The second experiment was performed using an immobilized artificial membrane (IAM) column. The assay was also performed on a Perkin Elmer Series 200 instrument connected to a UV-VIS spectrometer as the detector. The analytical wavelength was the same for all compounds, at 210 nm. […] The mobile phase was a mixture of 10 mM phosphate buffer pH 7.4 and acetonitrile in the ratio 80:20 (v/v). The phosphate buffer was obtained by dissolving the finished tablet in the appropriate amount of distilled water (1 tablet per 200 mL). In this case, it was not necessary to adjust the pH of the buffer using a pH meter.
The phase flow through the system was set to 0.5 mL/min as recommended by the column manufacturer. The solutions were delivered to the column using an autosampler syringe, the injection size was 10 µL.
The experiment was then repeated and the collected retention rates were the mean values of both series.

[11] = biological target: T2, bovine serum albumin (BSA); test: RP TLC on plates impregnated with bovine serum albumin; assay type: binding; details: Table S4, RP plate impregnated with 2 mg/mL BSA; pH 7.4 mobile phase
Description: as §1, §2, §3, §4, §5, §6

[12] = Table S1, milk/plasma drug concentration ratio, in vivo; cited from earlier work
[13] = Table S5, retention factor, HSA column, pH 7.4, 25 degrees Celsius

T2 sequence (P02769 25-607): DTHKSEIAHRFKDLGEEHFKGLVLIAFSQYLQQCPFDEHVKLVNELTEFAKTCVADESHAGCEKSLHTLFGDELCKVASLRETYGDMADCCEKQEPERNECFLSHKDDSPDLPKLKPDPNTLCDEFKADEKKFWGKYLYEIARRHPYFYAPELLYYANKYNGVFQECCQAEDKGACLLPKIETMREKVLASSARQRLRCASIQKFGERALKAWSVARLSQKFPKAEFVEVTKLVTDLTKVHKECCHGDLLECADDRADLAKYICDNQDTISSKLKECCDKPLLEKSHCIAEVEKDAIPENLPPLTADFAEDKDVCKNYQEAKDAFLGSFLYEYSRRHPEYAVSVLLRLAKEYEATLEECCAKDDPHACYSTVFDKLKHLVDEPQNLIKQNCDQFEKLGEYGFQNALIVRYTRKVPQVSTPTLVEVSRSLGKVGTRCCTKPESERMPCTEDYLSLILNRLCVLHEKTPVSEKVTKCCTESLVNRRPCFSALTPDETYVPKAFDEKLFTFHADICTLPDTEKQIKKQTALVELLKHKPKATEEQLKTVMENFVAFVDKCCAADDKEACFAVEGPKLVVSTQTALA
T1 sequence (P02768 25-609): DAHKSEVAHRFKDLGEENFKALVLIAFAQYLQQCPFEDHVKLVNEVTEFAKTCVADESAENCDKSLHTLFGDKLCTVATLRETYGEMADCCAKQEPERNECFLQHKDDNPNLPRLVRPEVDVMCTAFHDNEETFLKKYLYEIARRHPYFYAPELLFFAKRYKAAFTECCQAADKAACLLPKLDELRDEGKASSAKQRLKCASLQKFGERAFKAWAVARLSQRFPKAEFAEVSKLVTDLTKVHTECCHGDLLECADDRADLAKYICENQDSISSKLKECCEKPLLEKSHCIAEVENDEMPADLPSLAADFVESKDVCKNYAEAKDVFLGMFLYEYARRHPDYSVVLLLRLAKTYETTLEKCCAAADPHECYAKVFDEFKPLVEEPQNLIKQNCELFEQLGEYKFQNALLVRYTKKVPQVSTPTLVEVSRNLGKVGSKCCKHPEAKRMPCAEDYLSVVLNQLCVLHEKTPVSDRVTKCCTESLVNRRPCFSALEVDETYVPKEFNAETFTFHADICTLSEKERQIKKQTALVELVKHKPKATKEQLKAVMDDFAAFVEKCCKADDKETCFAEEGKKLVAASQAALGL

Row | Structure (SMILES) | chromatographic logD [1] | PB [2] | CNS+/- [3] | M/P code [4] | NP (Rf, BSA-impregnated NP plate) [5] | CRP (Rf, control RP plate) [6] | CNP (Rf, control NP plate) [7] | BB vivo [8] | k HSA ([9]; pH 7.4) | log k IAM [10] | k IAM [10] | RP (Rf, BSA-impregnated RP plate) [11] | M/P [12] | k HSA [9, 13]
1 | CN1C(=O)CC(=O)N(c2ccccc2)c2cc(Cl)ccc21 [clobazam] | 0 | 0.85 | 1 | 1 (Code 1 corresponds to drugs with an M/P value <0.40—completely safe) | 0.95 | 0.79 | 0.95 | 0.350 | 1.01 | 0.41 | 2.58 | 0.80 | 0.25 | 
2 | Clc1cccc(Cl)c1N=C1NCCN1 [clonidine] | 0.13 | 0.3 | 1 | 4 (4 is M/P >1.20—dangerous) | 0.50 | 0.73 | 0.49 | 0.150 |  | 0.45 | 2.83 | 0.68 | 2 | 1.35
3 | CN1CCN2c3ccccc3Cc3ccccc3C2C1 (centres unmarked) [mianserin] | 0.81 | 0.9 | 1 | 4 (4 is M/P >1.20—dangerous) | 0.55 | 0.55 | 0.54 | 0.990 |  | 1.34 | 21.72 | 0.55 | 2.2 | 6.39
4 | Cc1ncc2n1-c1ccc(Cl)cc1C(c1ccccc1F)=NC2 [midazolam] | 0.51 | 0.97 | 1 | 2 (2 corresponds to the range of 0.40–0.80—at the safety limit) | 0.83 | 0.66 | 0.82 | 0.398 | 3.22 | 0.76 | 5.69 | 0.66 | 0.785 | 
5 | O=C1NC(=O)C(c2ccccc2)(c2ccccc2)N1 [phenytoin] | 0.21 | 0.9 | 1 | 1 (Code 1 corresponds to drugs with an M/P value <0.40—completely safe) | 0.97 | 0.87 | 0.97 | -0.096 |  | 0.25 | 1.78 | 0.86 | 0.29 | 1.63
